Drawing on ChEMBL document CHEMBL1201862, “PubChem BioAssay data set” (2004), this text covers AC50, EC50 and IC50 for six molecules.

The structures appear in SMILES notation. The source made the active and inactive calls.

What is called AC50 is the midpoint of the concentration-response curve, whichever way the signal moves. The IC50 is the midpoint of a concentration-inhibition curve.

One assay relates to HEK293. Nature of the assay: viability loss in HEK293T cells – cell-based, ATP luminescence, cherry-pick samples, cytotoxicity control, dose response (AID 687005).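 Also: cells exposed to compound for 48 hours.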 It is filed as functional. To be noted: Homo sapiens.
A short description of assay [1]: HEK293 Cytotoxicity Assay Measured in Cell-Based System Using Plate Reader - 7071-01_Inhibitor_Dose_CherryPick_Activity_Set2. Type of assay: functional.
Assay [2] deals with T1, RNA-binding protein pos-1 (Caenorhabditis elegans, UniProt G5EF15).
T1 sequence (G5EF15 whole entry): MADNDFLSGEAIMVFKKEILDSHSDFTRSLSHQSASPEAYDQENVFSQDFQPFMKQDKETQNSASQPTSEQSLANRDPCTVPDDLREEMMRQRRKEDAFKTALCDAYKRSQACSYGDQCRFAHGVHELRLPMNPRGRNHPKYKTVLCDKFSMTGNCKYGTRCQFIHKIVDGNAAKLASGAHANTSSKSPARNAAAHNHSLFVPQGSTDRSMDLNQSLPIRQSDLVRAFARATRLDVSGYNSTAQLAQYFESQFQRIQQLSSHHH
Nature of the assay: disruptors of C. elegans POS-1 RNA interaction – biochemical, fluorescence polarization, dose response (AID 1964).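 Also: purified POS-1 fused to maltose binding protein made in E. coli; potency of compounds blocking POS-1 binding to fluorescent RNA.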 A general note: Fluorescence polarisation rises when a labelled molecule tumbles more slowly, as on binding a larger partner.

In assay [3] the target is T2, Zinc finger protein mex-5 (Caenorhabditis elegans, UniProt Q9XUB2).
T2 sequence (Q9XUB2 whole entry): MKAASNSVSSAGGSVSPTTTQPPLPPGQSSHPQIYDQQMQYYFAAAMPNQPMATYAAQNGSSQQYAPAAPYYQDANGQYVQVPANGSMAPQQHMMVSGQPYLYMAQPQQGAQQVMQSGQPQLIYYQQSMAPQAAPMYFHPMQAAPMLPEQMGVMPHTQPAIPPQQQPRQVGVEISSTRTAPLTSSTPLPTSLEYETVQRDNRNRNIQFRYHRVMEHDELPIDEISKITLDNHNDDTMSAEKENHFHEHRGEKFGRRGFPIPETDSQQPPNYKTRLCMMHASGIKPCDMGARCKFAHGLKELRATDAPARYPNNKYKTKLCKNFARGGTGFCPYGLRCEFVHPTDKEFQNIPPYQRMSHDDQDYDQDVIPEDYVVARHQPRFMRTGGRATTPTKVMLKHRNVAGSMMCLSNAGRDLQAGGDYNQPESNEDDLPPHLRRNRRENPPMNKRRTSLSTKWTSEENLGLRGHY
In words: potency of MEX-5 RNA-binding blockers – biochemical, C. elegans, fluorescence polarization, dose response (AID 1960).

Assay [4] is described as follows: cells.
Assay [5] is described as follows: potency of ADAM10 substrate cleavage blockers – biochemical, QFRET, dose response (AID 743254).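 Also: ADAM10 enzyme with the DM2 quenched FRET peptide as substrate; EDANS fluorescence gain as the protease cuts the substrate; inhibitor potency against ADAM10 proteolytic activity.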
For assay [6], the target named is Disintegrin and metalloproteinase domain-containing protein 17 (Homo sapiens, UniProt P78536). Nature of the assay: inhibition of ADAM17 substrate cleavage – biochemical, quenched FRET substrate, counter-screen for ADAM10 exosite inhibitor project, dose response (AID 743253).
A further assay has as its target T3, Caspase-3 (Homo sapiens, UniProt P42574).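 Also: Dose-response selectivity test against caspase-3 for candidate inhibitors of sentrin-specific proteases (SENPs).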
T3 sequence (P42574 whole entry): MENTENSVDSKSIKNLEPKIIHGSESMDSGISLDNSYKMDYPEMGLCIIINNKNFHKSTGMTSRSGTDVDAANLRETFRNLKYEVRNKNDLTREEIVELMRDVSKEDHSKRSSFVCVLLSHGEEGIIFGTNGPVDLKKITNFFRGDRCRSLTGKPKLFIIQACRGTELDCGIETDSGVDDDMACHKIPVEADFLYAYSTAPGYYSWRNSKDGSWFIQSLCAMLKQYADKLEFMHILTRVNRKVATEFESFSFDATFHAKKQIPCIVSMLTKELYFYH
It is filed as functional.

In assay [7] the target is T4, Sentrin-specific protease 7 (Homo sapiens, UniProt Q9BQF6).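 Also: Luminescence-based dose-response confirmation of ultra-high-throughput screening hits, measuring inhibition of SENP7.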
T4 sequence (Q9BQF6 whole entry): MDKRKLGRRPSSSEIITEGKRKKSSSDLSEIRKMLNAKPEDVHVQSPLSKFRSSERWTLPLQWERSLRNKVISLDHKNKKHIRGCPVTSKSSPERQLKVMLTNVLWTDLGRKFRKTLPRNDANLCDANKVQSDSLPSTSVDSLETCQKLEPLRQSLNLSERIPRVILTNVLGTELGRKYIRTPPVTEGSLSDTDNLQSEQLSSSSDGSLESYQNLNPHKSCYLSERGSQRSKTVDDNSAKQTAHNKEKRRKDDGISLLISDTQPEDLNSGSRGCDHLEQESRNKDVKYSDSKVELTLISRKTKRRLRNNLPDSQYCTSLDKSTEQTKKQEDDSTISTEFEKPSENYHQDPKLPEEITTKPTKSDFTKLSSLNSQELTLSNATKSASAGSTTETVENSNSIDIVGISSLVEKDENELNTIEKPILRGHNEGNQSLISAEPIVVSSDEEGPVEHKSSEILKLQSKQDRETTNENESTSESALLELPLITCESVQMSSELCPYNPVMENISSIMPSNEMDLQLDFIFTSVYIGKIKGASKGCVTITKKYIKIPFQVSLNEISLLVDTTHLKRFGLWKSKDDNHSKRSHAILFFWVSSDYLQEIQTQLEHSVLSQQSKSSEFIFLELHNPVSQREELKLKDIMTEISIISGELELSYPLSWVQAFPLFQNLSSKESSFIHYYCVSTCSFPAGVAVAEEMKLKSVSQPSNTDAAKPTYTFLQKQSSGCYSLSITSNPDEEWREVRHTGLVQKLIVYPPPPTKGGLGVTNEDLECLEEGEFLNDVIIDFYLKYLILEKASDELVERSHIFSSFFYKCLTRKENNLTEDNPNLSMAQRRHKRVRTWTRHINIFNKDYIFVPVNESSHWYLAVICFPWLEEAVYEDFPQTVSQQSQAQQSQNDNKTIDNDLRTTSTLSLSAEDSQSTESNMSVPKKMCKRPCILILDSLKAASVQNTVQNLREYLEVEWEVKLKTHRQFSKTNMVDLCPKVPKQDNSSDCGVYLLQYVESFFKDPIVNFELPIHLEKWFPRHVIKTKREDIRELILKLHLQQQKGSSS
Type of assay: functional.

Assay [8] concerns the target T5, Sentrin-specific protease 6 (Homo sapiens, UniProt Q9GZR1).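 Also: Luminescence-based dose-response confirmatory assay of SENP6 inhibition, following up an ultra-high-throughput screen.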
T5 sequence (Q9GZR1 whole entry): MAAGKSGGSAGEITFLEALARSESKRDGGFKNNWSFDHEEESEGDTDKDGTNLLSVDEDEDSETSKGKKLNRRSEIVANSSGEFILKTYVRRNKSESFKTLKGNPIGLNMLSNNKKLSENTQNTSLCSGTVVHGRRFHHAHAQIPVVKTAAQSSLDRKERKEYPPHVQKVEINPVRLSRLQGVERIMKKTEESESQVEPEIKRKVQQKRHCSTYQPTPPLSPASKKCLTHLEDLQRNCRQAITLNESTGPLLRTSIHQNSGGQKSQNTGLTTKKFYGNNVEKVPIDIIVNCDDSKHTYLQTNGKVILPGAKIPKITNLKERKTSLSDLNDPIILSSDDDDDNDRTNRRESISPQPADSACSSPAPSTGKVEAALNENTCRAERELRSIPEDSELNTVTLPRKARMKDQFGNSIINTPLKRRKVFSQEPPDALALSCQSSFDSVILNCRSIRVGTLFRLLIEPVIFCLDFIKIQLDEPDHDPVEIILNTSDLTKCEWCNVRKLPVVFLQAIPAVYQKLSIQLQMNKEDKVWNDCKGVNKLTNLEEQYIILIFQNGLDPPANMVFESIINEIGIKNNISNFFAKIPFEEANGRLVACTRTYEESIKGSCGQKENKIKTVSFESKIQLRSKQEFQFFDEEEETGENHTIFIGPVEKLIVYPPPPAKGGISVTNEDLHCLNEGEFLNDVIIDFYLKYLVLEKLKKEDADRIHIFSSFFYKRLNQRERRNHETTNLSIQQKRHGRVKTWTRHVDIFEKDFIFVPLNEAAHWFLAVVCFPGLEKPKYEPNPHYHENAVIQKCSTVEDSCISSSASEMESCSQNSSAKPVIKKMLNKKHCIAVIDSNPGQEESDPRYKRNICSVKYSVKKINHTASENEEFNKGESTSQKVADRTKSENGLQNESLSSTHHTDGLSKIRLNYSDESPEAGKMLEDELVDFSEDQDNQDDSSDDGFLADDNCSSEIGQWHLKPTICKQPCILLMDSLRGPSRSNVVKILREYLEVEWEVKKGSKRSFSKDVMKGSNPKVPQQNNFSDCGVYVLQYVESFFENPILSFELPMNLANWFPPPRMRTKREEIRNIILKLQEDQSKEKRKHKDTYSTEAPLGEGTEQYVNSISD
It is filed as functional.

Assay [9] has as its target T6, Sentrin-specific protease 8 (Homo sapiens, UniProt Q96LD8).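 Also: luminescence read-out of SENP8 inhibition, dose-response confirmation following an ultra-high-throughput screen.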
T6 sequence (Q96LD8 whole entry): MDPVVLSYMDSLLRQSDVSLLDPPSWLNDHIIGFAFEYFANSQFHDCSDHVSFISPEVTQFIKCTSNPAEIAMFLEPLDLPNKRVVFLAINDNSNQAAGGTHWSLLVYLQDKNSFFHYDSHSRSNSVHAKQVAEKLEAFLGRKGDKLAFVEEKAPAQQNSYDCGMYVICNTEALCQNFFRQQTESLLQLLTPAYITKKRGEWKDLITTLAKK
Type of assay: functional.

Assay [10] deals with T7, Endoribonuclease toxin MazF (Escherichia coli K-12, UniProt P0AE70).
T7 sequence (P0AE70 whole entry): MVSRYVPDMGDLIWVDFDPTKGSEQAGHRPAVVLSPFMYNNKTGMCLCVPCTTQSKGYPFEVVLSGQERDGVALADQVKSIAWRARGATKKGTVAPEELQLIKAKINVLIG
In words: activation of MazEF endoribonuclease cleavage – biochemical, fluorescence, single-stranded RNA substrate, uHTS hits, dose response (AID 588481). It is filed as functional.

Assay [11] deals with T7, Endoribonuclease toxin MazF. Nature of the assay: substrate-only fluorescence increase artefacts – biochemical, single-stranded RNase substrate, counter-screen for MazEF activator project, dose response (AID 588502). It is filed as functional.
The nature of assay [12]: Luminescence-based cell-based high throughput dose response assay to identify activators of the DAF-12 from the parasite S. stercoralis (ssDAF-12). Type of assay: functional.
Assay [13] has as its target T8, Oxysterols receptor LXR-beta (Homo sapiens, UniProt P55055).
T8 sequence (P55055 whole entry): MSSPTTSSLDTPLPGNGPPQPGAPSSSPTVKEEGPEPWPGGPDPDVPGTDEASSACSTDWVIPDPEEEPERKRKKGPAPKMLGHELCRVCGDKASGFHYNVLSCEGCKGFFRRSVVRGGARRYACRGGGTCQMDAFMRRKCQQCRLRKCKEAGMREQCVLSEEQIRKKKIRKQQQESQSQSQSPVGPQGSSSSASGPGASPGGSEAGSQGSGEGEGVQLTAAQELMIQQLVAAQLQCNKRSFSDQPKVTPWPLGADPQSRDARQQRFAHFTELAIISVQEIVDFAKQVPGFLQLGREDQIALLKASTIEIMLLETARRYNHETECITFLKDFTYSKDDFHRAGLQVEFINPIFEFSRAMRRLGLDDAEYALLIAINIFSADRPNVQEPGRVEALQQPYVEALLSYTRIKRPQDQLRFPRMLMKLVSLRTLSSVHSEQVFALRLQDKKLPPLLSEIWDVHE
In words: LXR agonists, Gal4 luciferase reporter, dose response, counter-screen for ssDAF-12 agonist project, cell-based, luminescence, HEK293, S. stercoralis campaign (AID 720737). Type of assay: functional. The note with it: read-out: IC50 (the source's name).

Assay [14] concerns the target T8, Oxysterols receptor LXR-beta. Type of assay: functional, cell-based.
Assay [15] shares this target. Type of assay: functional, cell-based. The source holds these as a separate data set.
Assay [16] in a line: cells. The source holds these as a separate data set.
The test system of a further assay is HeLa. In words: viability loss in HeLa cells – cell-based, ATP luminescence, cherry-pick samples, cytotoxicity control, dose response (AID 687004). Type of assay: functional. To be noted: Homo sapiens.

Chain of Disintegrin and metalloproteinase domain-containing protein 17 (P78536 whole entry, the tested form may be a part): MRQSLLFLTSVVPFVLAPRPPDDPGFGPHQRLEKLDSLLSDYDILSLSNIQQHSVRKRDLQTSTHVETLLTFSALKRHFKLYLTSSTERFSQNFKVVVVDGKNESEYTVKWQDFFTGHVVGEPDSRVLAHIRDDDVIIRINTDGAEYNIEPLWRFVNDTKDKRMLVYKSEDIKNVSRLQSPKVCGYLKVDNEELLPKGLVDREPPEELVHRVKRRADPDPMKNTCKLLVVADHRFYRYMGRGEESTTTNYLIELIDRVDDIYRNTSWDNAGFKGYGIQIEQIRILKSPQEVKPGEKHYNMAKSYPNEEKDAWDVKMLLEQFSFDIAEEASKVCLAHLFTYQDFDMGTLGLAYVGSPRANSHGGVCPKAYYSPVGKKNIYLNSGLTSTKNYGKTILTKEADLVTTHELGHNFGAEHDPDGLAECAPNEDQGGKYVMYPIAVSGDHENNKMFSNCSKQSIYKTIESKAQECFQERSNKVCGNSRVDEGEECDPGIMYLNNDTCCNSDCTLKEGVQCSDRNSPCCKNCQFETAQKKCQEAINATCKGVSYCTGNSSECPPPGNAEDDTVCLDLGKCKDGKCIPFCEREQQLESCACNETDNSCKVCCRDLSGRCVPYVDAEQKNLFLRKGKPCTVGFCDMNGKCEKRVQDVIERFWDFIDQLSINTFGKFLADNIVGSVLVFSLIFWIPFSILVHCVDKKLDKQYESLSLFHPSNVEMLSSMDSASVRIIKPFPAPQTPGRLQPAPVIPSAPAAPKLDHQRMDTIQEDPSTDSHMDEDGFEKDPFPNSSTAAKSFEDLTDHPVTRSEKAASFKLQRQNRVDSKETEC

As for `Cc1ccc(C(=O)NC(=S)Nc2ccc(N3CCOCC3)cc2)cc1`, the AC50 (with HEK293; in [1]) was 20.1 µM (active) in each case.
As for `CCN(CC)c1ccc2cc(C#N)c(=O)oc2c1`, the EC50 in assay [2] was 76.3 µM (active); in assay [3] it was 63 µM (inconclusive). The AC50 in the assay “cells [4]” was 0.575 µM (active).
Regarding `COc1ccccc1NS(=O)(=O)c1cc(NC(=O)c2cc(F)c(F)c(F)c2F)ccc1N1CCOCC1`, the IC50 in assay [5] and in assay [6] was > 69.5 µM (inactive) throughout.
Take `OC(c1ccccc1)(c1nc(-c2ccc3c(c2)OCO3)cs1)C(F)(F)F` (stereo not drawn): the IC50 in assay [5] was > 7.73 µM (active); in [6], > 69.5 µM (inactive).
For the molecule `C(=N\NC1=Nc2cccc3cccc1c23)/c1ccccc1`, the 50% inhibitory concentration (IC50) on Caspase-3 is 30.1 µM (active); in assay [7] it was 5.42 µM (active); in assay [8] it was > 100 µM (inactive); in assay [9] it was > 100 µM (inactive); in assay [12], > 67.5 µM (inactive). The EC50 in assay [10] was > 99 µM (inactive); in assay [11], > 99 µM (inactive); in assay [13], > 67.5 µM (inactive); in assay [14] it was > 67.5 µM (inactive); in assay [15] it was > 67.5 µM (inactive); in the assay “cells [16]”, > 67.5 µM (inactive).
`C[C@@H]1CN([C@H](C)CO)C(=O)c2cccc(NC(=O)Nc3ccccc3)c2O[C@@H]1CN(C)Cc1ccc(Cl)c(Cl)c1`: the AC50 in the assay on HeLa was 45.7 µM (active); with HEK293, 9.06 µM (active); in assay [1] it was 9.06 µM (active).
